# Measurements: ChEMBL document CHEMBL1148916, “Additional cytotoxic sterols and saponins from the starfish certonardoa semiregularis” (2004)
# How the values were obtained:
# Type in all cases: functional
# Conditions in all cases: read-out: ED50 (the source's name)
# [1] = system: SK-MEL-2; experiment: Cytotoxicity against human SK-MEL-2 cells
# [2] = system: XF498; experiment: Cytotoxicity against human XF498 cells
# [3] = system: HCT-15; experiment: Cytotoxicity against human HCT15 cells
# [4] = system: SK-OV-3; experiment: Cytotoxicity against human SKOV3 cells
# [5] = system: A549; experiment: Cytotoxicity against human A549 cells
smiles,measurement,setting,value
C[C@H](CO)CCC[C@@H](C)[C@H]1CC(=O)C2=C3C[C@H](O)[C@H]4[C@@H](O)[C@@H](O)CC[C@]4(C)[C@H]3CC[C@@]21C [CERTONARDOSTEROL Q4],EC50,[1],3.4 µg/mL
same,EC50,[2],2.9 µg/mL
same,EC50,[3],4.2 µg/mL
same,EC50,[4],4.1 µg/mL
same,EC50,[5],3.8 µg/mL
CC(C)[C@@H](O)CC[C@@H](C)[C@H]1CC(=O)[C@@H]2[C@]1(C)CC[C@@H]1[C@@]3(C)CC[C@H](O)C[C@@H]3[C@@H](O)C[C@]12O [CERTONARDOSTEROL Q3],EC50,[1],7.3 µg/mL
same,EC50,[2],12.6 µg/mL
same,EC50,[3],13.6 µg/mL
same,EC50,[4],12.3 µg/mL
same,EC50,[5],5.43 µg/mL
COc1cccc2c1C(=O)c1c(O)c3c(c(O)c1C2=O)C[C@@](O)(C(=O)CO)C[C@@H]3O[C@H]1C[C@H](N)[C@H](O)[C@H](C)O1 [DOXORUBICIN],EC50,[1],0.05 µg/mL
same,EC50,[2],0.12 µg/mL
same,EC50,[3],0.18 µg/mL
same,EC50,[4],0.12 µg/mL
same,EC50,[5],0.04 µg/mL
CC(C)[C@H](CC[C@@H](C)[C@H]1C[C@@H](O)[C@H]2[C@@H]3C[C@H](O)[C@H]4[C@@H](O)[C@@H](O)CC[C@]4(C)[C@H]3CC[C@@]21C)O[C@@H]1O[C@H](CO)[C@H](O)[C@H]1O [CERTONARDOSIDE H4],EC50,[1],8.3 µg/mL
same,EC50,[2],> 30 µg/mL
same,EC50,[3],> 30 µg/mL
same,EC50,[4],> 30 µg/mL
same,EC50,[5],> 30 µg/mL
CC(/C=C/[C@@H](C)[C@H]1C[C@@H](O)[C@@H]2[C@]1(C)CC[C@@H]1[C@@]3(C)CC[C@H](O)[C@H](O)[C@@H]3[C@@H](O)C[C@]12O)[C@@H](C)O (stereo not given in full) [CERTONARDOSTEROL A4],EC50,[1],5.7 µg/mL
same,EC50,[2],28.4 µg/mL
same,EC50,[3],19.3 µg/mL
same,EC50,[4],16.4 µg/mL
same,EC50,[5],17 µg/mL
CC(C)[C@](O)(CO)CC[C@@H](C)[C@H]1C[C@@H](O)[C@H]2[C@@H]3C[C@H](O)[C@H]4[C@@H](O)[C@@H](O)CC[C@]4(C)[C@H]3CC[C@@]21C [CERTONARDOSTEROL B4],EC50,[1],7.5 µg/mL
same,EC50,[2],> 30 µg/mL
same,EC50,[3],> 30 µg/mL
same,EC50,[4],36.6 µg/mL
same,EC50,[5],> 30 µg/mL
CC(C)[C@@H](O)CC[C@@H](C)[C@H]1CC(=O)C2=C3C[C@H](O)[C@H]4[C@@H](O)[C@@H](O)CC[C@]4(C)[C@H]3CC[C@@]21C [CERTONARDOSTEROL Q7],EC50,[1],4.66 µg/mL
same,EC50,[2],3.8 µg/mL
same,EC50,[3],7.1 µg/mL
same,EC50,[4],6.65 µg/mL
same,EC50,[5],4.58 µg/mL
CC(/C=C/[C@@H](C)[C@H]1C[C@@H](O)[C@@H]2[C@]1(C)CC[C@@H]1[C@@]3(C)CC[C@H](O)[C@H](O)[C@@H]3[C@@H](O)C[C@]12O)CO (stereo not given in full),EC50,[1],> 30 µg/mL
same,EC50,[2],> 30 µg/mL
same,EC50,[3],> 30 µg/mL
same,EC50,[4],> 30 µg/mL
same,EC50,[5],> 30 µg/mL
CC(C)[C@@H](O)CC[C@@H](C)[C@H]1CC(=O)C2=C3C[C@H](O)[C@H]4C[C@@H](O)CC[C@]4(C)[C@H]3CC[C@@]21C [CERTONARDOSTEROL Q6],EC50,[1],0.17 µg/mL
same,EC50,[2],0.12 µg/mL
same,EC50,[3],0.48 µg/mL
same,EC50,[4],0.22 µg/mL
same,EC50,[5],0.43 µg/mL
C[C@H](CO)CCC[C@@H](C)[C@H]1C[C@@H](O)[C@@H]2[C@]1(C)CC[C@@H]1[C@@]3(C)CC[C@H](O)[C@H](O)[C@@H]3[C@@H](O)C[C@]12O [CERTONARDOSTEROL A3],EC50,[1],5.24 µg/mL
same,EC50,[2],18.6 µg/mL
same,EC50,[3],20.3 µg/mL
same,EC50,[4],16.2 µg/mL
same,EC50,[5],11.7 µg/mL
C=C(CC[C@@H](C)[C@H]1CC(=O)[C@@H]2[C@]1(C)CC[C@@H]1[C@@]3(C)CC[C@H](O)[C@H](O)[C@@H]3[C@@H](O)C[C@]12O)[C@H](C)CO [CERTONARDOSTEROL Q1],EC50,[1],5.57 µg/mL
same,EC50,[2],4.95 µg/mL
same,EC50,[3],11.6 µg/mL
same,EC50,[4],10.9 µg/mL
same,EC50,[5],12 µg/mL
CO[C@H]1[C@H](O[C@H]2[C@H](O[C@@H](CC[C@@H](C)[C@H]3C[C@@H](O)[C@H]4[C@@H]5C[C@H](O)[C@H]6[C@@H](O)[C@@H](O)CC[C@]6(C)[C@H]5CC[C@@]43C)C(C)C)O[C@H](CO)[C@@H]2O)OC[C@@H](O)[C@@H]1O [CERTONARDOSIDE H3],EC50,[1],0.82 µg/mL
same,EC50,[2],0.52 µg/mL
same,EC50,[3],7.2 µg/mL
same,EC50,[4],2.8 µg/mL
same,EC50,[5],3.65 µg/mL
CC(C)[C@@H](O)CC[C@@H](C)[C@H]1CC(=O)[C@@H]2[C@]1(C)CC[C@@H]1[C@@]3(C)CC[C@H](O)[C@H](O)[C@@H]3[C@@H](O)C[C@]12O [CERTONARDOSTEROL Q2],EC50,[1],4.2 µg/mL
same,EC50,[2],4.1 µg/mL
same,EC50,[3],5.82 µg/mL
same,EC50,[4],6.85 µg/mL
same,EC50,[5],6.94 µg/mL
C=C(CC[C@@H](C)[C@H]1CC(=O)C2=C3C[C@H](O)[C@H]4[C@@H](O)[C@@H](O)CC[C@]4(C)[C@H]3CC[C@@]21C)[C@H](C)CO [CERTONARDOSTEROL Q5],EC50,[1],> 30 µg/mL
same,EC50,[2],> 30 µg/mL
same,EC50,[3],> 30 µg/mL
same,EC50,[4],> 30 µg/mL
same,EC50,[5],> 30 µg/mL
CC(/C=C/[C@@H](C)[C@H]1C[C@@H](O)[C@H]2[C@@H]3C[C@H](O)[C@H]4[C@@H](O)[C@@H](O)CC[C@]4(C)[C@H]3CC[C@@]21C)CO (stereo not given in full) [CERTONARDOSTEROL B3],EC50,[1],7.13 µg/mL
same,EC50,[2],14.7 µg/mL
same,EC50,[3],10.4 µg/mL
same,EC50,[4],12.1 µg/mL
same,EC50,[5],12.5 µg/mL
